From patent US6375961B1, “Cosmetic skin care compositions containing cumic alcohol” (Unilever Home & Personal Care (USA), division of Conopoco, …, priority 1999, dated 2002)

Legend:
Type in all cases: cell-based
[1] = tested on: human keratinocytes; assay: Transglutaminase (TG-1) assay in keratinocytes
Method: Normal human keratinocytes, isolated from neonatal foreskin by trypsin treatment, were grown in Dulbecco's Modified Eagles Medium (DMEM, Life Technologies. Grand Island, New York) with 10% fetal bovine serum in the 10 presence of irradiated mouse fibroblasts for establishing dividing keratinocyte colonies. Cells were incubated until their second passage and stored at −70 ° C. for future use. All incubations took place at 37 ° C. with 5% CO2. Frozen second passage keratinocytes were thawed and plated in T−175 flasks (Corning. Corning, N.Y.) with DMEM and grown for five days. After reaching 80% confluence, they were trypsinized and seeded into 6-well plates containing keratinocyte growth medium (KGM, Clonetics, San Diego, Calif.) with 0.15 mM calcium. Keratinocytes were placed in KGM (2 ml per well) at 0.2 million cells/plate in 6-well plates and grown for four or five days until the cells reached approximately 20% confluence. […] One set of triplicate wells was left untreated to serve as control. After three days of incubation, cells were washed thoroughly with phosphate buffered saline (PBS, 10 mM sodium phosphate, 138 mM sodium choride, 2.7 mM potassium chloride, pH 7.4) and placed at −70 °C. for 2 hours. Cells were then thawed for two hours. The DNA content of cells was quantified by using the DNA-binding fluorophore, bis-benzimidazole (Hoechst 33258) and measuring the specific fluoroescence of the DNA-bound fluorophore (360 nm excitation, 450 nm emission). Cellular TG-1 levels were determined by using a transglutaminase-1 (TG-1) specific monoclonal antibody as the primary antibody (BC1, Amersham, UK) and a peroxidase labeled rabbit antimouse IgG as the secondary antibody (Amersham, UK). The plates were blocked at room temperature with 5% nonfat milk in Tris-buffered saline (TBS, 10 mM Tris, 150 mM NaCL, pH 8.0) for one hour followed by two hours incubation with the primary antibody (1:4000 dilution) in 1% milk/TBS at room temperature. After rinsing the plates three times with 1% milk/TDS containing […] Tween 20 (Bio-Rad, Hercules, Calif.), the plates were incubated with a 1:4000 dilution of the secondary antibody at room temperature for two hours. The plates were then rinsed three times with 1% milk/0.05% Tween 20/TBS and three times with PBS. Color was developed by incubation with o-phenylene-diamine (Sigma, St. Louis. Mo.) and hydrogen peroxide (Sigma) dissolved in a 1:1 mixture of 0.2 M dibasic sodium phosphate (Sigma) and 0.1 M citric acid at pH 5.0(Sigma). Solutions were transferred to 4 ml plastic cuvets (Fisher Scientific, Pittsburgh Pa.) and the absorbance was read at 492 nm on an Ultraspec 3000 spectrophotometer (Pharmacia, Piscataway N.J.) and TG-1 levels were expressed as absorbence/DNA fluorescence. Concentrations used in the examples below are of cumic alcohol in a corn oil droplet. The in vitro concentration may not be relevant to in vivo concentration because there is partitioning between oil and culture medium and the medium concentration of the active is not The oil droplet concentration of the active. For the cumic alcohol to elicit its effect on the cultured cells, it must diffuse out of the corn oil into the culture medium where it is then accessible to the cells. The cumic alcohol concentration in the culture medium is therefore considerably less than the concentration in the corn oil droplet.

[2] = tested on: human keratinocytes; assay: Glucose uptake assay (3H 2-deoxy-glucose) in keratinocytes
Method: Normal human keratinocytes, isolated from neonatal foreskin by trypsin treatment, were grown in Dulbecco's Modified Eagles Medium (DMEM, Life Technologies. Grand Island, New York) with 10% fetal bovine serum in the 10 presence of irradiated mouse fibroblasts for establishing dividing keratinocyte colonies. Cells were incubated until their second passage and stored at −70 ° C. for future use. All incubations took place at 37 ° C. with 5% CO2. Frozen second passage keratinocytes were thawed and plated in T−175 flasks (Corning. Corning, N.Y.) with DMEM and grown for five days. After reaching 80% confluence, they were trypsinized and seeded into 6-well plates containing keratinocyte growth medium (KGM, Clonetics, San Diego, Calif.) with 0.15 mM calcium. Keratinocytes were plated in KGM medium at either 0.5 or 1 million cells/plate in six well plates and incuoated for 4 days. The medium was then aspirated, and the wells were rinsed twice with Phosphate Buffered Saline (PBS), then the plates were incubated (1 mL/well) for 24 hours. The medium was replaced with fresh KBM, 10 ul of corn oil containing cumic alcohol at various concentrations were added and cells were allowed to incubate (for 4 hours at 37C) before 2 μCi of ^3H 2-deoxy-glucose (Amersham, UK) were added to each well. Samples were then incubated for one hour. The medium was aspirated and wells were rinsed three times with PBS before the addition of 500 μL of 0.1N NaOH/well. After 10 minutes of agitation on a shaker, a 25 μL aliquot was removed for protein analysis, and 200 μL were transferred to a scintillation vial containing 5mL Scintillation cocktail (Scintiverse) and counting was performed on a Beckman counter, ^3H-Glucose uptake results were expressed as CPM/μg protein. Concentrations used in the examples below are of cumic alcohol in a corn oil droplet. The in vitro concentration may not be relevant to in vivo concentration because there is partitioning between oil and culture medium and the medium concentration of the active is not The oil droplet concentration of the active. For the cumic alcohol to elicit its effect on the cultured cells, it must diffuse out of the corn oil into the culture medium where it is then accessible to the cells. The cumic alcohol concentration in the culture medium is therefore considerably less than the concentration in the corn oil droplet.

[3] = tested on: human keratinocytes; assay: Ascorbate uptake assay (14C-ascorbic acid) in keratinocytes
Method: Normal human keratinocytes, isolated from neonatal foreskin by trypsin treatment, were grown in Dulbecco's Modified Eagles Medium (DMEM, Life Technologies. Grand Island, New York) with 10% fetal bovine serum in the 10 presence of irradiated mouse fibroblasts for establishing dividing keratinocyte colonies. Cells were incubated until their second passage and stored at -70 ° C. for future use. All incubations took place at 37 ° C. with 5% CO2. Frozen second passage keratinocytes were thawed and plated in T-175 flasks (Corning. Corning, N.Y.) with DMEM and grown for five days. After reaching 80% confluence, they were trypsinized and seeded into 6-well plates containing keratinocyte growth medium (KGM, Clonetics, San Diego, Calif.) with 0.15 mM calcium. For this experiment, third passage keratinocytes were plated into a KGM medium (Clonetics, Calif.) containing 0.15 mM calcium. […] Cells were then switched into fresh KBM and were treated with 5% cumic alcohol administered in corn oil (dosed 10 μl corn oil+active at indicated concentration/2 ml media). After 4 hours of incubation, 0.1 μCi/ml of L-^14C-1-ascorbic acid (Amersham, UK) and 50 units of ascorbic oxidase (Sigma) were added to each well and further incubated for 1 hour. The medium was aspirated and wells were rinsed 3 times with PBS before addition of 500 μl of 0.1N NaOH/well. After 10 minutes of agitation on shaker, 25 μL aliquot was removed for protein analysis, and 200 μl were transferred to scintillation vials containing 5 ml of […]. The counting was performed on a Beckman counter (model LS 5801). Ascorbic acid uptake results were expressed as CPM /μg protein. Concentrations used in the examples below are of cumic alcohol in a corn oil droplet. The in vitro concentration may not be relevant to in vivo concentration because there is partitioning between oil and culture medium and the medium concentration of the active is not The oil droplet concentration of the active. […]

[4] = tested on: human keratinocytes; assay: Lipid analysis (ceramides, TLC densitometry) in keratinocytes
[5] = Example 2, Experiment 1, cumic alcohol 2.5% in corn oil
[6] = Example 2, Experiment 1, cumic alcohol 5% in corn oil
[7] = Example 2, Experiment 2, cumic alcohol 2.5% in corn oil
[8] = Example 2, cumic alcohol at 2.5 and 5%
[9] = Example 4, inactivity at lower concentrations

## CC(C)c1ccc(CO)cc1 [CUMIC ALCOHOL, p-isopropylbenzyl alcohol]
[1]; [5]
  TG-1 % of CONTROL: 117%
[1]; [6]
  TG-1 % of CONTROL: 180%
[1]; [7]
  TG-1 % of CONTROL: 145%
[1]; [8]
  expression of transglutaminase-1 in comparison to untreated control cells (in words): increased expression
[1]; Example 4, cumic alcohol 1% in corn oil
  TG-1 % of CONTROL: 127%
[1]; Example 4, cumic alcohol 2.5% in corn oil
  TG-1 % of CONTROL: 174%
[1]; Example 4, cumic alcohol 5% in corn oil
  TG-1 % of CONTROL: 205%
[1]; [9]
  transglutaminase-1 expression (in words): significant increase
[2]; cumic alcohol 1% in corn oil droplet
  glucose uptake % OF CONTROL: 107%
[2]; cumic alcohol 2.5% in corn oil droplet
  glucose uptake % OF CONTROL: 185%
[2]; cumic alcohol 5% in corn oil droplet
  glucose uptake % OF CONTROL: 206%
[2]; cumic alcohol 5% in corn oil droplet (10 ul), 4 h preincubation, 1 h uptake
  glucose uptake CPM/ug PROTEIN: 40.67 CPM/ug PROTEIN
[3]; cumic alcohol 5% in corn oil
  ascorbate uptake % of CONTROL: 129%
[3]; cumic alcohol 5% in corn oil (10 ul/2 ml media), 4 h preincubation, 1 h uptake
  ascorbate uptake CPM/WELL: 17235 +− CPM/WELL
[3]; cumic alcohol at 5% in corn oil
  uptake of ascorbate in comparison to untreated control cells (in words): significantly increased uptake
[4]; [5]
  ceramides % of CONTROL: 67%
[4]; [6]
  ceramides % of CONTROL: 156%
[4]; [7]
  ceramides % of CONTROL: 166%
[4]; Example 2, Experiment 2, cumic alcohol 5% in corn oil
  ceramides % of CONTROL: 185%
[4]; [8]
  expression of ceramides in comparison to untreated control cells (in words): increased expression
[4]; [9]
  ceramide production (in words): significant increase
